Measurements from paper PMC10648349, “Aromatic Diboronic Acids as Effective KPC/AmpC Inhibitors” (Molecules, 2023).

System: Gram-negative rods
Test: MIC in the presence of efflux pump inhibitor PAβN
Type: cell-based
Conditions: PAβN 20 mg/L
Procedure: To investigate the contribution of the MDR efflux pumps to the resistance of Gram-negative rods to the newly synthesized compounds, the MIC values of studied agents, with or without the pump inhibitor, PAβN (20 mg/L) (Sigma, St. Louis, MO, USA), were evaluated. The MIC determination was performed in Mueller–Hinton II broth medium (MHB) (Becton, Dickinson and Company, Franklin Lakes, NJ, USA) using 2-fold serial dilutions of tested agents, according to the CLSI guidelines. To minimize the influence of PAβN on the destabilization of bacterial cell covers, the tests were conducted in the presence of 1 mM MgSO4 (Sigma, St. Louis, MO, USA). At least a 4-fold reduction in the MIC value after the addition of PAβN was considered significant.

Compound | reduction of MIC in the presence of PAβN
OB(O)c1cc(C(F)(F)F)cc(B(O)O)c1F [2e] | 4–16 fold
OB(O)c1ccc(C(F)(F)F)cc1B(O)O [3e] | 4–16 fold
O=Cc1cc(F)ccc1B(O)O [7b] | 4–16 fold
